Results as given in US20240025906A1 (NEURON23, INC., priority 2022, published 2024).
Like-named read-outs stand apart in the source and are kept apart here.

How the values were obtained:
[1] = test system: JAK1/TYK2 pSTAT5 (Tyr694/699) in THP-1 cell line; experiment: IFNa-stimulated JAK1/TYK2 pSTAT5 (Tyr694/699) inhibition cellular assay, AlphaLISA; assay type: cell-based; conditions: Homo sapiens, THP-1 cells, AlphaLISA (Assay B)
In short: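 The readout is AlphaLISA signal at 615 nm for phospho-STAT5 in THP-1 lysates after IFNa stimulation (added at 100 ng/mL, 30 min, 37 °C). Cells had compound for 1 h beforehand across eight 6-fold concentrations up to 10000 nM final. IC50s are 4PL fits with bottom and Hill slope constrained.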

TYK2 JH2 = molecular target: T1, TYK2 JH2 (Homo sapiens, UniProt P29597); experiment: TYK2 JH2 binding assay (KINOMEscan KdELECT competitive binding); conditions: TYK2 JH2 domain
T1 construct: purchased DiscoverX (KINOMEscan KdELECT service); host or cells: E. coli BL21-derived (T7 phage display) or HEK-293
T1 sequence (P29597 589-875 limits assumed): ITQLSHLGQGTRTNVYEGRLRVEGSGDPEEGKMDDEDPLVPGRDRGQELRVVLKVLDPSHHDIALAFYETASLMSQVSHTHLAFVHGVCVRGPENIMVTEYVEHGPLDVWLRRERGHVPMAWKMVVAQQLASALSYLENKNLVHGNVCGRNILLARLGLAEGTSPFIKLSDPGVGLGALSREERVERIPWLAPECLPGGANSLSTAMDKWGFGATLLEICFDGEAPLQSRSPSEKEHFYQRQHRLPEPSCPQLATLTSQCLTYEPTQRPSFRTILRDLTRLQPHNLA
In short: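 Test compounds were titrated in 11 three-fold steps against JH2 fragment captured on ligand-loaded magnetic beads, with 1 h incubation at room temperature and DMSO at 0.9%. Eluted kinase was quantified by qPCR, and Kd was fitted from the dose series.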

[2] = IFNa-stimulated, read-out: Cellular_THP1_IFNa-pSTATS_TYK2
[3] = KINOMEscan KdELECT (Assay A), read-out: Biochemical TYK2_DiscoverX_JH2_BND_Kd
[4] = DiscoverX KINOMEscan KdELECT (Assay A), read-out: Biochemical TYK2_DiscoverX_JH2_BND_Kd
[5] = IFNa-stimulated pSTAT5 (Tyr694/699), read-out: Cellular_THP1_IFNa-pSTATS_TYK2
[6] = IFNa-stimulated, read-out: Cellular THP1_IFNa-pSTATS_IC50
[7] = KINOMEscan KdELECT (Assay A), read-out: Biochemical TYK2_JH2_Kd

CNc1ncc(-c2cnc3ccc(OC)cn23)c2cc(NC(=O)[C@H]3C[C@H]3C)ncc12 [Example 878, (1S,2R)—N-(5-(6-methoxyimidazo[1,2-a]pyridin-3-yl)-8-(methylamino)-2,7-naphthyridin-3-yl)-2-methylcyclopropane-1-carboxamide]
IC50 [1, 2]: > 500 nM
Kd (TYK2 JH2; [3]): ≤ 100 nM

CCO/C=C\c1cccc2nc(-c3cnc(NC)c4cnc(NC(=O)C5CC5)cc34)oc12 [Example 268, (Z)—N-(5-(7-(2-ethoxyvinyl)benzo[d]oxazol-2-yl)-8-(methylamino)-2,7-naphthyridin-3-yl)cyclopropanecarboxamide]
IC50 [1, 2]: ≤ 500 nM
Kd (TYK2 JH2; [4]): ≤ 100 nM

CNc1ncc(-c2cn3cc(N4CCO[C@@H](C)C4)ccc3n2)c2cc(NC(=O)C3(F)CC3)ncc12 [Example 1085, 1-fluoro-N-[8-(methylamino)-5-[6-[(2S)-2-methylmorpholin-4-yl]imidazo[1,2-a]pyridin-2-yl]-2,7-naphthyridin-3-yl]cyclopropanecarboxamide]
IC50 [1, 5]: ≤ 500 nM
Kd (TYK2 JH2; [3]): ≤ 100 nM

CNc1ncc(C#Cc2ccc(-n3c(=O)ccn3C)cc2)c2cc(NC(=O)C3CC3)ncc12 [Example 962, N-[8-(methylamino)-5-[2-[4-(2-methyl-5-oxo-pyrazol-1-yl)phenyl]ethynyl]-2,7-naphthyridin-3-yl]cyclopropanecarboxamide]
IC50 [1, 2]: ≤ 500 nM
Kd (TYK2 JH2; [3]): ≤ 100 nM

[2H]C([2H])([2H])Nc1ncc(-c2nc3ccc(N4CCOCC4)cn3n2)c2cc(NC(=O)[C@H]3C[C@H]3C)ncc12 [Example 572, (1S,2R)-2-methyl-N-(8-((methyl-d3)amino)-5-(6-morpholino-[1,2,4]triazolo[1,5-a]pyridin-2-yl)-2,7-naphthyridin-3-yl)cyclopropane-1-carboxamide]
IC50 [1, 2]: ≤ 500 nM
Kd (TYK2 JH2; [4]): ≤ 100 nM

CNc1ncc(C#Cc2ccc(OC3CN(C(C)=O)C3)cc2)c2cc(NC(=O)C3(F)CC3)ncc12 [Example 760, N-(5-((4-((1-acetylazetidin-3-yl)oxy)phenyl)ethynyl)-8-(methylamino)-2,7-naphthyridin-3-yl)-1-fluorocyclopropane-1-carboxamide]
IC50 [1, 2]: ≤ 500 nM
Kd (TYK2 JH2; [3]): ≤ 100 nM

CNc1ncc(-c2nc3ccc(OC)cn3n2)c2cc(Nc3cccc(OC)n3)ncc12 [Example 524, 4-(6-methoxy-[1,2,4]triazolo[1,5-a]pyridin-2-yl)-N^6-(6-methoxypyridin-2-yl)-N^1-methyl-2,7-naphthyridine-1,6-diamine]
IC50 [1, 2]: ≤ 500 nM
Kd (TYK2 JH2; [4]): ≤ 100 nM

CNc1ncc(-c2nc3ccc(C)cn3n2)c2cc(NC(=O)[C@H]3C[C@H]3C)ncc12 [Example 562, (1S,2R)-2-methyl-N-(5-(6-methyl-[1,2,4]triazolo[1,5-a]pyridin-2-yl)-8-(methylamino)-2,7-naphthyridin-3-yl)cyclopropane-1-carboxamide]
IC50 [1, 2]: ≤ 500 nM
Kd (TYK2 JH2; [4]): ≤ 100 nM

[2H]C([2H])([2H])Nc1ncc(-c2nc3ccc(C)cn3n2)c2cc(NC(=O)[C@@H]3C[C@@H]3F)ncc12 [Example 578, (1S,2S)-2-fluoro-N-(8-((methyl-d3)amino)-5-(6-methyl-[1,2,4]triazolo[1,5-a]pyridin-2-yl)-2,7-naphthyridin-3-yl)cyclopropane-1-carboxamide]
IC50 [1, 2]: ≤ 500 nM
Kd (TYK2 JH2; [4]): ≤ 100 nM

CNc1ncc(-c2nc3cc(N4CCO[C@@H](C(F)F)C4)ccc3o2)c2cc(NC(=O)C3CC3)ncc12 (single isomer, unassigned) [Example 936]
IC50 [1, 2]: ≤ 500 nM
Kd (TYK2 JH2; [3]): ≤ 100 nM

CNc1ncc(-c2cc3ccc(OC)cn3n2)c2cc(NC(=O)C3CC3)ncc12 [Example 765, N-(5-(6-methoxypyrazolo[1,5-a]pyridin-2-yl)-8-(methylamino)-2,7-naphthyridin-3-yl)cyclopropanecarboxamide]
IC50 [1, 2]: ≤ 500 nM
Kd (TYK2 JH2; [3]): ≤ 100 nM

CNc1ncc(C2CCOC2=O)c2cc(NC(=O)C3CC3)ncc12 (centres unmarked) [Example 86, N-(8-(methylamino)-5-(2-oxotetrahydrofuran-3-yl)-2,7-naphthyridin-3-yl)cyclopropanecarboxamide]
IC50 [1, 6]: > 500 nM
Kd (TYK2 JH2; [7]): ≤ 100 nM

CNc1ncc(C#Cc2ccc(N3CCOCC3)cc2)c2cc(NC(=O)[C@@H]3C[C@@H]3C(F)F)ncc12 (single isomer, unassigned) [Example 1074]
IC50 [1, 5]: ≤ 500 nM
Kd (TYK2 JH2; [3]): ≤ 100 nM

CNc1ncc(-c2nc3cc(OCC4CCC4)ccc3o2)c2cc(NC(=O)C3CC3)ncc12 [Example 337, N-(5-(5-(cyclobutylmethoxy)benzo[d]oxazol-2-yl)-8-(methylamino)-2,7-naphthyridin-3-yl)cyclopropanecarboxamide]
IC50 [1, 2]: > 500 nM
Kd (TYK2 JH2; [4]): ≤ 100 nM

CNc1ncc(CCc2ccc(OC(F)(F)F)cc2)c2cc(NC(=O)C3CC3)ncc12 [Example 848, N-(8-(methylamino)-5-(4-(trifluoromethoxy)phenethyl)-2,7-naphthyridin-3-yl)cyclopropanecarboxamide]
IC50 [1, 2]: > 500 nM
Kd (TYK2 JH2; [3]): ≤ 100 nM

CNc1ncc(-c2ccccc2)c2cc(NC(C)=O)ncc12 [Example 90, N-(8-(methylamino)-5-phenyl-2,7-naphthyridin-3-yl)acetamide]
IC50 [1, 6]: > 500 nM
Kd (TYK2 JH2; [7]): ≤ 100 nM

CNc1ncc(C#Cc2ccc(OC3CN(C(C)=O)C3)cc2)c2cc(NC(=O)[C@H]3C[C@H]3C(F)F)ncc12 (single isomer, unassigned) [Example 776]
IC50 [1, 2]: ≤ 500 nM
Kd (TYK2 JH2; [3]): ≤ 100 nM

CNc1ncc(-c2nc3cc(OC4CN(C)C4)ccc3o2)c2cc(NC(=O)C3CC3)ncc12 [Example 198, N-(8-(methylamino)-5-(5-((1-methylazetidin-3-yl)oxy)benzo[d]oxazol-2-yl)-2,7-naphthyridin-3-yl)cyclopropanecarboxamide]
IC50 [1, 2]: ≤ 500 nM
Kd (TYK2 JH2; [4]): ≤ 100 nM

O=C(Nc1cc2c(-c3nc4ccccc4o3)cnc(O)c2cn1)C1CC1 [Example 371, N-(5-(benzo[d]oxazol-2-yl)-8-hydroxy-2,7-naphthyridin-3-yl)cyclopropanecarboxamide]
IC50 [1, 2]: > 500 nM
Kd (TYK2 JH2; [4]): ≤ 100 nM

CNc1ncc(-c2nc3n(n2)CCCC3)c2cc(NC(=O)C3CC3)ncc12 [Example 842, N-(8-(methylamino)-5-(5,6,7,8-tetrahydro-[1,2,4]triazolo[1,5-a]pyridin-2-yl)-2,7-naphthyridin-3-yl)cyclopropanecarboxamide]
IC50 [1, 2]: > 500 nM
Kd (TYK2 JH2; [3]): ≤ 100 nM

CNc1ncc(C#Cc2ccc(-n3cccn3)cc2)c2cc(NC(=O)C3CC3)ncc12 [Example 806, N-(5-((4-(1H-pyrazol-1-yl)phenyl)ethynyl)-8-(methylamino)-2,7-naphthyridin-3-yl)cyclopropanecarboxamide]
IC50 [1, 2]: ≤ 500 nM
Kd (TYK2 JH2; [3]): ≤ 100 nM

CNc1ncc(-c2nc3cc(N4CCO[C@H](C(C)(C)O)C4)ccc3o2)c2cc(NC(=O)C3CC3)ncc12 (single isomer, unassigned) [Example 926]
IC50 [1, 2]: ≤ 500 nM
Kd (TYK2 JH2; [3]): ≤ 100 nM

[2H]C([2H])([2H])Nc1ncc(-c2nc3ccc(OC)cn3n2)c2cc(NC(=O)[C@H]3C[C@H]3C)ncc12 [Example 570, (1S,2R)—N-(5-(6-methoxy-[1,2,4]triazolo[1,5-a]pyridin-2-yl)-8-((methyl-d3)amino)-2,7-naphthyridin-3-yl)-2-methylcyclopropane-1-carboxamide]
IC50 [1, 2]: ≤ 500 nM
Kd (TYK2 JH2; [4]): ≤ 100 nM

CNc1ncc(-c2nc3ccc(N4C[C@H]5C[C@@H]4CO5)cn3n2)c2cc(NC(=O)C3(F)CC3)ncc12 [Example 563, N-(5-(6-((1R,4R)-2-oxa-5-azabicyclo[2.2.1]heptan-5-yl)-[1,2,4]triazolo[1,5-a]pyridin-2-yl)-8-(methylamino)-2,7-naphthyridin-3-yl)-1-fluorocyclopropane-1-carboxamide]
IC50 [1, 2]: ≤ 500 nM
Kd (TYK2 JH2; [4]): ≤ 100 nM

CCO/C=C\c1cccc2nc(-c3cnc(NC)c4cnc(NC(=O)C5CC5)cc34)nn12 [Example 506, (Z)—N-(5-(5-(2-ethoxyvinyl)-[1,2,4]triazolo[1,5-a]pyridin-2-yl)-8-(methylamino)-2,7-naphthyridin-3-yl)cyclopropanecarboxamide]
IC50 [1, 2]: ≤ 500 nM
Kd (TYK2 JH2; [4]): ≤ 100 nM

CCc1nc(NC)c2cnc(NC(=O)C3CC3)cc2c1C#Cc1ccc(OC)cc1 [Example 780, N-(6-ethyl-5-((4-methoxyphenyl)ethynyl)-8-(methylamino)-2,7-naphthyridin-3-yl)cyclopropanecarboxamide]
IC50 [1, 2]: > 500 nM
Kd (TYK2 JH2; [3]): ≤ 100 nM

CNc1ncc(-c2nc3ccc(N4CCO[C@@H](C)C4)cn3n2)c2cc(NC(=O)[C@@H]3C[C@@H]3C)ncc12 [Example 590, (1R,2S)-2-methyl-N-(8-(methylamino)-5-(6-((S)-2-methylmorpholino)-[1,2,4]triazolo[1,5-a]pyridin-2-yl)-2,7-naphthyridin-3-yl)cyclopropane-11-carboxamide]
IC50 [1, 2]: ≤ 500 nM
Kd (TYK2 JH2; [4]): ≤ 100 nM

CNc1ncc(-c2nc3ccc(C#N)cc3o2)c2cc(NC(=O)C3CC3)ncc12 [Example 213, N-(5-(6-cyanobenzo[d]oxazol-2-yl)-8-(methylamino)-2,7-naphthyridin-3-yl)cyclopropanecarboxamide]
IC50 [1, 2]: ≤ 500 nM
Kd (TYK2 JH2; [4]): ≤ 100 nM
